Converted amounts (≈) assume the structure as drawn. Like-named read-outs stand apart in the source and are kept apart here.
Columns and labels:
E. coli K12 [1] = test system: E. coli K12
[2] = test system: M. tuberculosis H37Rv ∆1258c; assay: microbe, parasite or virus in culture; type: cell-based; conditions: Mycobacterium tuberculosis, 168 h
E. faecalis ATCC 29212 = assay: MIC broth microdilution, E. faecalis; type: cell-based; conditions: Enterococcus faecalis, ATCC29212; E. faecalis ATCC 29212; read-out: Minimum Inhibitory Concentration
A. baumannii ATCC 19606 = assay: MIC broth microdilution, A. baumannii; type: cell-based, Acinetobacter baumannii; conditions: A. baumannii ATCC 19606; for MIC: Acinetobacter baumannii, ATCC19606, read-out: Minimum Inhibitory Concentration
[3] = molecular target: T1, M. smegmatis ribosomes (strain SZ380) (Mycolicibacterium smegmatis, UniProt A0QSG6)
T1 construct: S30 extracts were prepared by addition of dithiothreitol (DTT) to 1 mM and centrifugation; endogenous in cells; host or cells: M. smegmatis strain SZ380, S30 cell extract

[4] = test system: S. epidermidis ATCC 14990; assay: MIC broth microdilution, S. epidermidis; type: cell-based; conditions: Staphylococcus epidermidis
[5] = test system: M. abscessus ATCC 19977 ∆2780c; assay: microbe, parasite or virus in culture; type: cell-based, Mycobacterium abscessus; conditions: Mycobacteroides abscessus, ATCC19977, 72 h, read-out: ∆2780c MIC
E. coli K12 [6] = assay: microbe, parasite or virus in culture; conditions: Escherichia coli, K12, read-out: Minimum Inhibitory Concentration
M. tuberculosis H37Rv [7] = test system: M. tuberculosis H37Rv
S. aureus USA300 = assay: MIC broth microdilution, S. aureus; type: cell-based; conditions: Staphylococcus aureus
E. faecium ATCC 19434 = assay: MIC broth microdilution, E. faecium; type: cell-based; conditions: Enterococcus faecium, ATCC19434; E. faecium ATCC 19434; read-out: Minimum Inhibitory Concentration
[8] = test system: K. pneumoniae ATCC 700603; assay: MIC broth microdilution, K. pneumoniae; type: cell-based, Klebsiella pneumoniae; conditions: for MIC: Klebsiella pneumoniae
[9] = test system: M. smegmatis strain MC^2 155; assay: MIC broth microdilution, M. smegmatis; type: cell-based, Mycobacterium smegmatis; conditions: Mycolicibacterium smegmatis, MC^2155, 72 h, read-out: WT MIC
P. aeruginosa ATCC 15692 = assay: MIC broth microdilution, P. aeruginosa; type: cell-based, Pseudomonas aeruginosa; conditions: P. aeruginosa ATCC 15692; for MIC: Pseudomonas aeruginosa, ATCC15692, read-out: Minimum Inhibitory Concentration
M. abscessus ATCC 19977 [10] = test system: M. abscessus ATCC 19977
S. pyogenes ATCC 700294 = assay: MIC broth microdilution, S. pyogenes; type: cell-based; conditions: Streptococcus pyogenes, ATCC700294; S. pyogenes ATCC 700294; read-out: Minimum Inhibitory Concentration
E. coli K12 ∆tolC = assay: microbe, parasite or virus in culture; type: cell-based; conditions: Escherichia coli, read-out: Minimum Inhibitory Concentration
M. abscessus ATCC 19977 [11] = assay: microbe, parasite or virus in culture; conditions: Mycobacteroides abscessus, ATCC19977, 72 h, read-out: WT MIC
S. pneumoniae R6 = assay: MIC broth microdilution, S. pneumoniae; type: cell-based; conditions: Streptococcus pneumoniae, read-out: Minimum Inhibitory Concentration
M. tuberculosis H37Rv [12] = assay: microbe, parasite or virus in culture; conditions: Mycobacterium tuberculosis, 168 h, read-out: WT MIC
Gram-positive species = assay: MIC, Gram-positive panel compared to SPC; type: cell-based; conditions: against all Gram-positive species
[13] = molecular target: T1, M. smegmatis ribosomes (strain SZ380); assay: Mycobacterial cell-free translation inhibition assay; type: biochemical, Mycobacterium smegmatis
Protocol: Mycobacterial cell-free translation inhibition assays were performed as described previously. In brief, M. smegmatis strain SZ380 bacterial cells were disrupted and emulsified with a microfluidizer processor (Microfluidics, Westwood, MA, USA) at 25,000 lb/in^2. S30 extracts were prepared by addition of dithiothreitol (DTT) to 1 mM and centrifugation at 30,000 × g at 4 °C. Translation reaction mixtures containing either test article or DMSO vehicle control and 4 μl of the S30 extract, 0.2 mM amino acid mix, 6 μg tRNA (Sigma), 0.4 μg hFluc mRNA, 0.3 μl protease inhibitor (complete, EDTA-free, Roche), 12 U RNAse inhibitor (Ribolock, Thermo Scientific), 6 μl S30 premix without amino acids (Promega), plus water to a final reaction volume of 15 μl were incubated for 1 h at 37 °C. The reaction was stopped on ice before adding 75 μl of luciferase assay reagent (Promega) and recording of luminescence. Regression analysis and IC50 calculations were performed using GraphPad Prism version 9.3.1 by using the equation [log(inhibitor) vs. response–Variable slope (four parameters)] with the fitting method: least squares (ordinary) fit. Y = Bottom + (Top-Bottom)/(1 + 10^((X-LogIC50))).

[14] = M. smegmatis strain MC^2 155, 3 days
[15] = previously reported; read-out: Ribo. IC50; cited from earlier work

T1 sequence (A0QSG6 whole entry): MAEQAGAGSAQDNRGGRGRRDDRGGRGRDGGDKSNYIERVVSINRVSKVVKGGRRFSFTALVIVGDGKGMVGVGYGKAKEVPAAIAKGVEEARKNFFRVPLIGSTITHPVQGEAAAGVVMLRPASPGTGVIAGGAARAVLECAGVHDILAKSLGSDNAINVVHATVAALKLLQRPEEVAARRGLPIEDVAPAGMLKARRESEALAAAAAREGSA

For `CN[C@@H]1[C@H](O)[C@H](NC)[C@H]2O[C@@]3(O)C(=O)C[C@@H](C)O[C@H]3O[C@@H]2[C@H]1O` [SPC (1), spectinomycin], the “E. coli Efflux Ratio” value (E. coli K12 [1]; E. coli K12 MIC versus K12 ∆tolC MIC) was 2, the MIC [2] was 4 µg/mL (≈ 12 µM) and the MIC (E. faecalis ATCC 29212) was 256 µg/mL (≈ 770 µM). The MIC (A. baumannii ATCC 19606) was over 1020 µg/mL, the IC50 ([3]; read-out: Ribo. IC50; previously reported; cited from earlier work) was 0.8 µM and the MIC ([4]; ATCC14990, read-out: Minimum Inhibitory Concentration) was 256 to 512 µg/mL (≈ 770 to 1540 µM). For the same compound, the MIC [5] was 16 µg/mL (≈ 48.1 µM), the MIC (E. coli K12 [6]) was 128 µg/mL (≈ 385 µM) and the “Efflux Ratio” value (M. tuberculosis H37Rv [7]) was 16. It also gave an MIC (S. aureus USA300; USA300, read-out: Minimum Inhibitory Concentration) of 512 µg/mL (≈ 1540 µM), an MIC (E. faecium ATCC 19434) of 256 µg/mL (≈ 770 µM) and an MIC ([8]; ATCC700603, read-out: Minimum Inhibitory Concentration) of 512 µg/mL (≈ 1540 µM). For the same compound, the MIC [9, 14] was 64 µg/mL (≈ 193 µM), the MIC (P. aeruginosa ATCC 15692) was 1020 µg/mL (≈ 3080 µM) and the “Efflux Ratio” value (M. abscessus ATCC 19977 [10]) was 32. For the same compound, the MIC (S. pyogenes ATCC 700294) was 32 µg/mL (≈ 96.3 µM), the MIC (E. coli K12 ∆tolC) was 64 µg/mL (≈ 193 µM) and the MIC (M. abscessus ATCC 19977 [11]) was 512 µg/mL (≈ 1540 µM). The MIC (S. pneumoniae R6) was 16 µg/mL (≈ 48.1 µM) and the MIC (M. tuberculosis H37Rv [12]) was 64 µg/mL (≈ 193 µM).
In the case of `CCCC[C@@H]1CC(=O)[C@]2(O)O[C@@H]3[C@@H](NC)[C@@H](O)[C@@H](NC)[C@H](O)[C@H]3O[C@@H]2O1` [TroSPC (2), trospectomycin, reference compound], the “increase in activity compared to SPC” value (Gram-positive species) is reported as over 4 fold, the “E. coli Efflux Ratio” value (E. coli K12 [1]) is reported as over 4 and the MIC [2] is reported as 2 µg/mL (≈ 5.34 µM). For the same compound, the MIC (E. faecalis ATCC 29212) was 64 µg/mL (≈ 171 µM), the “Minimum Inhibitory Concentration” value (A. baumannii ATCC 19606) was over 64 µg/mL and the MIC (A. baumannii ATCC 19606) was over 64 µg/mL. The MIC ([4]; ATCC14990, S. epidermidis ATCC 14990, read-out: Minimum Inhibitory Concentration) was 32 µg/mL (≈ 85.5 µM), the MIC [5] was 16 µg/mL (≈ 42.7 µM) and the MIC (E. coli K12 [6]) was over 64 µg/mL. The “Efflux Ratio” value (M. tuberculosis H37Rv [7]) was 16, the MIC (S. aureus USA300; S. aureus USA300, read-out: Minimum Inhibitory Concentration) was 64 µg/mL (≈ 171 µM) and the MIC (E. faecium ATCC 19434) was 64 µg/mL (≈ 171 µM). For the same compound, the “Minimum Inhibitory Concentration” value ([8]; K. pneumoniae ATCC 700603) was over 64 µg/mL, the MIC ([8]; ATCC700603, K. pneumoniae ATCC 700603, read-out: Minimum Inhibitory Concentration) was over 64 µg/mL and the MIC [9, 14] was 32 µg/mL (≈ 85.5 µM). The IC50 [13] was 510 nM, the “Minimum Inhibitory Concentration” value (P. aeruginosa ATCC 15692) was over 64 µg/mL and the MIC (P. aeruginosa ATCC 15692) was over 64 µg/mL. The “Efflux Ratio” value (M. abscessus ATCC 19977 [10]) was 4, the MIC (S. pyogenes ATCC 700294) was 4 to 8 µg/mL (≈ 10.7 to 21.4 µM) and the MIC (E. coli K12 ∆tolC) was 16 µg/mL (≈ 42.7 µM). For the same compound, the MIC (M. abscessus ATCC 19977 [11]) was 64 µg/mL (≈ 171 µM), the MIC (S. pneumoniae R6) was 4 µg/mL (≈ 10.7 µM) and the MIC (M. tuberculosis H37Rv [12]) was 32 µg/mL (≈ 85.5 µM).
In the case of `CN[C@@H]1[C@H](O)[C@H](NC)[C@H]2O[C@]3(O)[C@H](O[C@@H]2[C@H]1O)O[C@H](C)C[C@@]3(O)CNCCc1ccc(F)cc1` [eAmSPC (7), reference compound], the MIC [2] is listed as 0.5 µg/mL (≈ 1.03 µM), the IC50 [3, 15] is listed as 1.01 µM and the MIC [5] is listed as 1 µg/mL (≈ 2.06 µM). The “Efflux Ratio” value (M. tuberculosis H37Rv [7]) was 4, the MIC [9] was 4 µg/mL (≈ 8.24 µM) and the “Efflux Ratio” value (M. abscessus ATCC 19977 [10]) was 4. The MIC (M. abscessus ATCC 19977 [11]) was 4 µg/mL (≈ 8.24 µM) and the MIC (M. tuberculosis H37Rv [12]) was 2 µg/mL (≈ 4.12 µM).
For `CN[C@@H]1[C@H](O)[C@H](NC)[C@H]2O[C@]3(O)[C@H](O[C@@H]2[C@H]1O)O[C@H](C)C[C@@]3(O)CNCc1ccc(F)cc1` [bAmSPC (5), reference compound], the MIC [2] is listed as 2 µg/mL (≈ 4.24 µM), the IC50 [3, 15] is listed as 1.18 µM and the MIC [5] is listed as 8 µg/mL (≈ 17 µM). The “Efflux Ratio” value (M. tuberculosis H37Rv [7]) was 8, the “Efflux Ratio” value (M. abscessus ATCC 19977 [10]) was 16 and the MIC (M. abscessus ATCC 19977 [11]) was 128 µg/mL (≈ 271 µM). For the same compound, the MIC (M. tuberculosis H37Rv [12]) was 16 µg/mL (≈ 33.9 µM).
In the case of `CN[C@@H]1[C@H](O)[C@H](NC)[C@H]2O[C@]3(O)[C@H](O[C@@H]2[C@H]1O)O[C@H](C)C[C@H]3NC(=O)Cc1ccccn1` [SPA (3), reference compound], the MIC [2] is given as 4 µg/mL (≈ 8.84 µM), the IC50 ([3]; converted from µg/mL to µM from what was previously reported; read-out: Ribo. IC50; cited from earlier work) is given as 1.8 µM and the “Efflux Ratio” value (M. abscessus ATCC 19977 [10]) is given as 4. It also gave an MIC (M. tuberculosis H37Rv [12]) of 2 µg/mL (≈ 4.42 µM).

From publication PMC11347369, “Synthesis and antibacterial action of 3’,6’-disubstituted spectinomycins” (The Journal of Antibiotics, 2024)
